# From patent US11918582B2 (RAPT Therapeutics, Inc., priority 2021, dated 2024)
# pIC50: −log10 of the molar value. Where a name gives a salt, the structure may show the parent alone.
# Target: T1, human HPK1 (MAP4K1) (Homo sapiens, UniProt Q92918)
# T1 construct: Recombinant human HPK1 kinase domain was obtained from ThermoFisher (Cat. #PV6357) and SignalChem (Cat. #M23-11G); purchased ThermoFisher; SignalChem PV6357; M23-11G
# T1 sequence (Q92918 17-274 limits assumed): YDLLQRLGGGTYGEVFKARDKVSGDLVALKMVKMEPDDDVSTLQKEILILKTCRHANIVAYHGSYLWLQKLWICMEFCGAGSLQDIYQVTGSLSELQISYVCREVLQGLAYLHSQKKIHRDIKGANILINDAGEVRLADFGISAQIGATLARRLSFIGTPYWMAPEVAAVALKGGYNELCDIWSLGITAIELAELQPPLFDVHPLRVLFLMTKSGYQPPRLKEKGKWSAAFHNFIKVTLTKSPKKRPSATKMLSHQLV
# Test: Biochemical assay for activity against HPK1 (ADP-Glo, MBP substrate)
# Conditions: recombinant human HPK1 kinase domain, 1 nM enzyme, ADP-Glo luminescence
# Outline: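 Recombinant human HPK1 kinase domain (1 nM solution) preincubated 15 min at room temperature with compounds in pH 7.5 HEPES buffer with NaCl, TCEP, MgCl2, Tween-20, BSA. MBP substrate with ATP added, reaction run 2 h at room temperature. ADP formation read by ADP-Glo luminescence to give IC50.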
row,pIC50,SMILES
1,> 7.00,"COc1cc2c(cc1Nc1ncc3cnn([C@H]4C[C@H](CNS(C)(=O)=O)C4)c3n1)CN(C)CC2 [Example 121, N-((trans-3-(6-((6-methoxy-2-methyl-1,2,3,4-tetrahydroisoquinolin-7-yl)amino)-1H-pyrazolo[3,4-d]pyrimidin-1-yl)cyclobutyl)methyl)methanesulfonamide trifluoroacetate]"
2,> 7.00,"COc1cc2c(cc1Nc1ncc3cnn([C@H]4C[C@H](CNC(C)=O)C4)c3n1)CN(C)CC2 [Example 122, N-((trans-3-(6-((6-methoxy-2-methyl-1,2,3,4-tetrahydroisoquinolin-7-yl)amino)-1H-pyrazolo[3,4-d]pyrimidin-1-yl)cyclobutyl)methyl)acetamide 2,2,2-trifluoroacetate]"
3,> 7.00,"COc1cc2c(cc1Nc1ncc3cnn([C@H]4C[C@H](CNS(=O)(=O)C5CC5)C4)c3n1)CN(C)CC2 [Example 123, N-[[3-[6-[(6-methoxy-2-methyl-3,4-dihydro-1H-isoquinolin-7-yl)amino]pyrazolo[3,4-d]pyrimidin-1-yl]cyclobutyl]methyl]cyclopropanesulfonamide]"
4,> 7.00,"COCCS(=O)(=O)NC[C@H]1C[C@H](n2ncc3cnc(Nc4cc5c(cc4OC)CCN(C)C5)nc32)C1 [Example 124, 2-methoxy-N-(((1r,3r)-3-(6-((6-methoxy-2-methyl-1,2,3,4-tetrahydroisoquinolin-7-yl)amino)-1H-pyrazolo[3,4-d]pyrimidin-1-yl)cyclobutyl)methyl)ethane-1-sulfonamide]"
5,6.60 to 7.00,"COc1cc2c(cc1Nc1ncc3cnn([C@H]4C[C@@H](CNS(C)(=O)=O)C4)c3n1)CN(C)CC2 [Example 125, N-((cis-3-(6-((6-methoxy-2-methyl-1,2,3,4-tetrahydroisoquinolin-7-yl)amino)-1H-pyrazolo[3,4-d]pyrimidin-1-yl)cyclobutyl)methyl)methanesulfonamide]"
6,6.60 to 7.00,"COc1cc2c(cc1Nc1ncc3cnn([C@H]4C[C@@H](CNC(C)=O)C4)c3n1)CN(C)CC2 [Example 126, N-((cis-3-(6-((6-methoxy-2-methyl-1,2,3,4-tetrahydroisoquinolin-7-yl)amino)-1H-pyrazolo[3,4-d]pyrimidin-1-yl)cyclobutyl)methyl)acetamide]"
7,> 7.00,"COc1cc2c(cc1Nc1ncc3cnn(C[C@H]4CN(C(C)=O)CCO4)c3n1)CN(C)CC2 [Example 127, (R)-1-(2-((6-((6-methoxy-2-methyl-1,2,3,4-tetrahydroisoquinolin-7-yl)amino)-1H-pyrazolo[3,4-d]pyrimidin-1-yl)methyl)morpholino)ethan-1-one trifluoroacetate]"
8,> 7.00,"COc1cc2c(cc1Nc1ncc3cnn(C[C@H]4CN(S(C)(=O)=O)CCO4)c3n1)CN(C)CC2 [Example 128, (S)-6-methoxy-2-methyl-N-(1-((4-(methylsulfonyl)morpholin-2-yl)methyl)-1H-pyrazolo[3,4-d]pyrimidin-6-yl)-1,2,3,4-tetrahydroisoquinolin-7-amine trifluoroacetate]"
9,> 7.00,"COc1cc2c(cc1Nc1ncc3cnn(C[C@@H]4COCCN4C(C)=O)c3n1)CN(C)CC2 [Example 129, (R)-1-(3-((6-((6-methoxy-2-methyl-1,2,3,4-tetrahydroisoquinolin-7-yl)amino)-1H-pyrazolo[3,4-d]pyrimidin-1-yl)methyl)morpholino)ethan-1-one trifluoroacetate]"
10,> 7.00,"COc1cc2c(cc1Nc1ncc3cnn(C[C@@H]4C[C@@H](O)CN4C(C)=O)c3n1)CN(C)CC2 [Example 130, 1-((2S,4R)-4-hydroxy-2-((6-((6-methoxy-2-methyl-1,2,3,4-tetrahydroisoquinolin-7-yl)amino)-1H-pyrazolo[3,4-d]pyrimidin-1-yl)methyl)pyrrolidin-1-yl)ethan-1-one trifluoroacetate]"
11,< 6.60,COc1cc2c(cc1Nc1ncc3cnn(C[C@H]4[C@@H](O)CCN4C(C)=O)c3n1)CN(C)CC2 [Example 131]
12,> 7.00,"COc1cc2c(cc1Nc1ncc3c(C)nn([C@H]4C[C@H](CNS(C)(=O)=O)C4)c3n1)CN(C)CC2 [Example 132, N-(((1r,3r)-3-(6-((6-methoxy-2-methyl-1,2,3,4-tetrahydroisoquinolin-7-yl)amino)-3-methyl-1H-pyrazolo[3,4-d]pyrimidin-1-yl)cyclobutyl)methyl)methanesulfonamide]"
13,6.60 to 7.00,"COc1cc2c(cc1Nc1ncc3cnn(C[C@@H]4CCN4C(C)=O)c3n1)CN(C)CC2 [Example 133, (S)-1-(2-((6-((6-methoxy-2-methyl-1,2,3,4-tetrahydroisoquinolin-7-yl)amino)-1H-pyrazolo[3,4-d]pyrimidin-1-yl)methyl)azetidin-1-yl)ethan-1-one]"
14,> 7.00,"COc1cc2c(cc1Nc1ncc3cnn(C[C@@H]4CCCCN4C(C)=O)c3n1)CN(C)CC2 [Example 134, (S)-1-(2-((6-((6-methoxy-2-methyl-1,2,3,4-tetrahydroisoquinolin-7-yl)amino)-1H-pyrazolo[3,4-d]pyrimidin-1-yl)methyl)piperidin-1-yl)ethan-1-one]"
15,> 7.00,"COc1cc2c(cc1Nc1ncc3cnn(C[C@]4(C)CCCN4C(C)=O)c3n1)CN(C)CC2 [Example 135, (S)-1-(2-((6-((6-methoxy-2-methyl-1,2,3,4-tetrahydroisoquinolin-7-yl)amino)-1H-pyrazolo[3,4-d]pyrimidin-1-yl)methyl)-2-methylpyrrolidin-1-yl)ethan-1-one]"
16,6.60 to 7.00,"COc1cc2c(cc1Nc1ncc3cnn(C[C@@H]4C[C@H](C)CN4C(C)=O)c3n1)CN(C)CC2 [Example 136, 1-((2S,4S)-2-((6-((6-methoxy-2-methyl-1,2,3,4-tetrahydroisoquinolin-7-yl)amino)-1H-pyrazolo[3,4-d]pyrimidin-1-yl)methyl)-4-methylpyrrolidin-1-yl)ethan-1-one]"
17,> 7.00,"COc1cc2c(cc1Nc1ncc3cnn(C[C@@H]4[C@@H]5C[C@@H]5CN4C(C)=O)c3n1)CN(C)CC2 [Example 137, 1-((1R,2S,5S)-2-((6-((6-methoxy-2-methyl-1,2,3,4-tetrahydroisoquinolin-7-yl)amino)-1H-pyrazolo[3,4-d]pyrimidin-1-yl)methyl)-3-azabicyclo[3.1.0]hexan-3-yl)ethan-1-one]"
18,> 7.00,"COc1cc2c(cc1Nc1ncc3cnn(C[C@@H]4C[C@@H](C)CN4C(C)=O)c3n1)CN(C)CC2 [Example 138, 1-((2S,4R)-2-((6-((6-methoxy-2-methyl-1,2,3,4-tetrahydroisoquinolin-7-yl)amino)-1H-pyrazolo[3,4-d]pyrimidin-1-yl)methyl)-4-methylpyrrolidin-1-yl)ethan-1-one]"
19,> 7.00,"CC(=O)N1CCC[C@H]1Cn1ncc2cnc(Nc3ccc4c(c3)CN(C)CC4)nc21 [Example 139, (S)-1-(2-((6-((2-methyl-1,2,3,4-tetrahydroisoquinolin-7-yl)amino)-1H-pyrazolo[3,4-d]pyrimidin-1-yl)methyl)pyrrolidin-1-yl)ethan-1-one]"
20,> 7.00,"COc1cc2c(cc1Nc1ncc3cnn(C[C@@H]4CCCN(C(C)=O)C4)c3n1)CN(C)CC2 [Example 140, 1-[(3R)-3-[[6-[(6-methoxy-2-methyl-3,4-dihydro-1H-isoquinolin-7-yl)amino]pyrazolo[3,4-d]pyrimidin-1-yl]methyl]-1-piperidyl]ethan-1-one]"
21,> 7.00,"COc1cc2c(cc1Nc1ncc3cnn(C[C@@H]4CCCN(S(C)(=O)=O)C4)c3n1)CN(C)CC2 [Example 141, 6-methoxy-2-methyl-N-[1-[[(3S)-1-methylsulfonyl-3-piperidyl]methyl]pyrazolo[3,4-d]pyrimidin-6-yl]-3,4-dihydro-1H-isoquinolin-7-amine]"
22,> 7.00,"COc1cc2c(cc1Nc1ncc3cnn(C[C@H]4CCCN(C(C)=O)C4)c3n1)CN(C)CC2 [Example 142, I-[(3S)-3-[[6-[(6-methoxy-2-methyl-3,4-dihydro-1H-isoquinolin-7-yl)amino]pyrazolo[3,4-d]pyrimidin-1-yl]methyl]-1-piperidyl]ethan-1-one]"
23,> 7.00,"COc1cc2c(cc1Nc1ncc3cnn(C[C@H]4CCCN(S(C)(=O)=O)C4)c3n1)CN(C)CC2 [Example 143, 6-methoxy-2-methyl-N-[1-[[(3R)-1-methylsulfonyl-3-piperidyl]methyl]pyrazolo[3,4-d]pyrimidin-6-yl]-3,4-dihydro-1H-isoquinolin-7-amine]"
24,6.60 to 7.00,"COc1cc2c(cc1Nc1ncc3cnn(C[C@@H]4C[C@H](C(F)(F)F)CN4C(C)=O)c3n1)CN(C)CC2 [Example 144, 1-[(2S,4S)-2-[[6-[(6-methoxy-2-methyl-3,4-dihydro-1H-isoquinolin-7-yl)amino]pyrazolo[3,4-d]pyrimidin-1-yl]methyl]-4-(trifluoromethyl)pyrrolidin-1-yl]ethan-1-one]"
25,6.60 to 7.00,"COc1cc2c(cc1Nc1ncc3cnn(C[C@@H]4C[C@@H](F)CN4C(C)=O)c3n1)CN(C)CC2 [Example 145, 1-[(2S,4R)-4-fluoro-2-[[6-[(6-methoxy-2-methyl-3,4-dihydro-1H-isoquinolin-7-yl)amino]pyrazolo[3,4-d]pyrimidin-1-yl]methyl]pyrrolidin-1-yl]ethan-1-one]"
26,> 7.00,"COc1cc2c(cc1Nc1ncc3cnn(C[C@@H]4C[C@H](F)CN4C(C)=O)c3n1)CN(C)CC2 [Example 146, 1-[(2S,4S)-4-fluoro-2-[[6-[(6-methoxy-2-methyl-3,4-dihydro-1H-isoquinolin-7-yl)amino]pyrazolo[3,4-d]pyrimidin-1-yl]methyl]pyrrolidin-1-yl]ethan-1-one]"
